Source: patent publication US20240140931A1, “TRICYCLIC COMPOUNDS AND USES THEREOF” (HUTCHMED LIMITED, priority 2021, published 2024)

Experiments:
[1] = biological target: Human full-length SHP2 recombinant protein (Homo sapiens (Human), UniProt Q06124); test: Assay of full-length SHP2 phosphatase activity; assay type: biochemical; details: DiFMUP substrate, with activating peptide
Procedure, shortened: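 Readout: DiFMUP hydrolysis fluorescence (355/460 nm) after 60 min at 25 °C, following 30 min RT preincubation of compound with peptide-activated full-length human SHP2. Controls were 1% DMSO with or without enzyme; IC50 by four-parameter logistic fit.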

Miapaca2 3D spheroids = test: Assay of cell proliferation on Miapaca2 3D spheroids; assay type: cell-based; details: CellTiter-Glo 3D, 5 days treatment
Method: Example 4 Assay of Cell Proliferation on Miapaca2 3D Spheroids
1. Reagents and Materials • CellTiter-Glo® 3D Cell Viability Assay Kit: Promega, Cat #G9683; • CellCarrier Spheroid ULA 96-well plate: Corning, Cat #4515; • Instrument: Envision, Perkinelmer; • Cell line: Miapaca2, ATCC, Cat #CRL-1420.
2. Preparation of Reaction Solutions • The test compound was dissolved in DMSO and diluted with DMSO to 3000.0 μM, and the compound was further 3-fold diluted with DMSO to: 1000.0, 333.3, 111.1, 37.0, 12.3, 4.1, and 1.4 μM. Then 2 μL of the compound at different dilution concentrations was added to 198 μL of a 1640 medium to prepare a 10× test compound, wherein DMSO was at the concentration of 1% (DMSO was at the final concentration of 0.1%).
3. Experimental Methods • Day0: Digest cells and count cell numbers. Miapaca2 cells were inoculated into a spheroid ULA 96-well plate at a density of 300 cells/well at 100 μL/well and cultured in a cell incubator at 5% CO2 and 37° C. • Day2: The cell spheroids formed at day2. Add 10 μL of 10× test compounds to the 96-well plate. To the cell positive control well was added 10 μL of 1% DMSO 1640 medium. Incubate the cell spheroids in a cell incubator at 5% CO2 and 37° C. for additional 5 days. • Cell viability assay: Add 50 μL of CellTiter-Glo reagent to each well, place the plate in a microplate shaker, and lysis under shaking at 900 rpm at room temperature for 5 minutes. Then incubate the plate at room temperature in the dark for 30 minutes. • The luminescene of each well was detected on Envision2104.
Cell Survial %=(Lum(d7 treatment)−Lum(d2 cell))/(Lum(d7 cell)−Lum(d2 cell))×100
Wherein: • Lum(d7 treatment) refers to the luminescene of the test compound treated cells on day7; • Lum(d2 cell) refers to the luminescene of the 0.1% DMSO treated Miapaca2 cells on day2; • Lum(d7 cell) refers to the luminescene of the 0.1% DMSO treated Miapaca2 cells on day7. • IC50 values were calculated following formula 205: y=A+((B−A)/(1+((C/X)^D))), by using the XL-Fit 5.0 software.

[2] = tested on: pERK1/2 (Thr202/Tyr204) in Miapaca2 cells; test: Assay of intracellular pERK1/2 (Thr202/Tyr204) phosphorylation; assay type: cell-based; details: pERK1/2 (Thr202/Tyr204) HTRF
Procedure, shortened: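 HTRF read-out (665/615 nm) of phospho-ERK1/2 Thr202/Tyr204 in lysates from Miapaca2 cells exposed for 2 h to 3-fold compound dilutions at 0.5% final DMSO. Controls: lysis buffer without cells and DMSO-treated cells; IC50 from four-parameter logistic fit.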

[3] = Homo sapiens, MIA PaCa-2, 120 h

Sequence of Human full-length SHP2 recombinant protein (Q06124 whole entry): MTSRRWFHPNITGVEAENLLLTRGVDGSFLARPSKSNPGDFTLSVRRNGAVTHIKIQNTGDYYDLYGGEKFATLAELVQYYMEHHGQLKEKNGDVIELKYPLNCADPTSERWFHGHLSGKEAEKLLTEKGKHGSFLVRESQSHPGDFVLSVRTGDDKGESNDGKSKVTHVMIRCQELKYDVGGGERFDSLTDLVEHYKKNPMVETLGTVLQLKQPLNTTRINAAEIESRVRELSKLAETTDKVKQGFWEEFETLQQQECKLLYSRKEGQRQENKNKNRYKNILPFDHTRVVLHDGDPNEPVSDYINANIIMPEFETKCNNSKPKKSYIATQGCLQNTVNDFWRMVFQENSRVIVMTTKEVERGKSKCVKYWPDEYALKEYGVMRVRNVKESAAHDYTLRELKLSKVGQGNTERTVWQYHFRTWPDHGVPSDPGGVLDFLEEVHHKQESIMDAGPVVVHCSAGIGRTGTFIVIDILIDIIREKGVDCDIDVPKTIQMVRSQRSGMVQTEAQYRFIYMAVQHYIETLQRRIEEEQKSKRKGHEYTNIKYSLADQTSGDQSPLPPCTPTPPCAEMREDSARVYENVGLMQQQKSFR

Structure (SMILES)	IC50 [1]	IC50 (Miapaca2 3D spheroids)	IC50 ([2]; 2 hours)	IC50 (Miapaca2 3D spheroids; [3])	IC50 ([2]; Homo sapiens, MIA PaCa-2, 2 h)
C#Cc1ccc2c(c1)[C@@H](N)C1(CCN(c3cc(=O)n(-c4ccc(F)c(OC)c4Cl)c(C)n3)CC1)C2 (atropisomer, axis not shown) [Compound 161]	1 nM	8 nM	13 nM		
COCC#Cc1ccc2c(c1)[C@@H](N)C1(CCN(c3cc(=O)n(-c4ccc(F)c(OC)c4Cl)c(C)n3)CC1)C2 (atropisomer, axis not shown) [Compound 163]	1 nM		14 nM	20 nM	
CNC(=O)C#Cc1ccc2c(c1)[C@@H](N)C1(CCN(c3cc(=O)n(-c4cccc(OC)c4Cl)c(C)n3)CC1)C2 (atropisomer, axis not shown) [Compound 182]	1 nM		23 nM	18 nM	
C#Cc1ccc2c(c1)[C@@H](N)C1(CCN(c3cc(=O)n(-c4ccc(C#N)c(OC)c4Cl)c(C)n3)CC1)C2 (atropisomer, axis not shown) [Compound 191]	1 nM	58 nM	21 nM		
C#Cc1ccc2c(c1)[C@@H](N)C1(CCN(c3cc(=O)n(-c4ccc(C#N)c(Cl)c4Cl)c(C)n3)CC1)C2 (atropisomer, axis not shown) [Compound 193]	1 nM	90 nM	24 nM		
CNC(=O)C#Cc1ccc2c(c1)[C@@H](N)C1(CCN(c3cc(=O)n(-c4ccc(F)c(OC)c4Cl)c(C)n3)CC1)C2 (atropisomer, axis not shown) [Compound 201]	1 nM		6 nM	18 nM	
CC#Cc1ccc2c(c1)[C@@H](N)C1(CCN(c3cc(=O)n(-c4ccc(F)c(OC)c4Cl)c(C)n3)CC1)C2 (atropisomer, axis not shown) [Compound 207]	2 nM		9 nM	35 nM	
CNC(=O)C#Cc1ccc2c(c1)[C@@H](N)C1(CCN(c3cc(=O)n(-c4ccc(F)c(F)c4Cl)c(C)n3)CC1)C2 (atropisomer, axis not shown) [Compound 209]	1 nM	38 nM	19 nM		
CC#Cc1ccc2c(c1)[C@@H](N)C1(CCN(c3cc(=O)n(-c4ccc(F)c(F)c4Cl)c(C)n3)CC1)C2 (atropisomer, axis not shown) [Compound 217]	1 nM		49 nM	62 nM	
CC#Cc1ccc2c(c1)[C@@H](N)C1(CCN(c3cc(=O)n(-c4ccc(F)c(Cl)c4Cl)c(C)n3)CC1)C2 (atropisomer, axis not shown) [Compound 221]	1 nM		15 nM	63 nM	
C#Cc1cc(F)c2c(c1)[C@@H](N)C1(CCN(c3cc(=O)n(-c4cccc(Cl)c4Cl)c(C)n3)CC1)C2 [Compound 135]	5 nM			95 nM	56 nM
COCC#Cc1ccc2c(c1)[C@@H](N)C1(CCN(c3ncc(Sc4ccnc(N)c4Cl)c4nncn34)CC1)C2 [Compound 147]	3 nM			48 nM	10 nM
COCC#Cc1ccc2c(c1)[C@@H](N)C1(CCN(c3ncc(Sc4ccnc(N)c4Cl)c4ncnn34)CC1)C2 [Compound 148]	4 nM			47 nM	13 nM
CCNC(=O)C#Cc1ccc2c(c1)[C@@H](N)C1(CCN(c3cnc(Sc4ccnc(N)c4Cl)cn3)CC1)C2 [Compound 155]	1 nM			0.9 nM	2 nM
C#Cc1ccc2c(c1)[C@@H](N)C1(CCN(c3ncc(Sc4ccnc(N)c4Cl)n4nccc34)CC1)C2 [Compound 156]	6 nM			31 nM	10 nM
C#Cc1ccc2c(c1)[C@@H](N)C1(CCN(c3cc(=O)n(-c4ccc(F)c(OC)c4Cl)c(C)n3)CC1)C2 [Compound 157]	2 nM	28 nM	25 nM		
COCC#Cc1ccc2c(c1)[C@@H](N)C1(CCN(c3cc(=O)n(-c4ccc(F)c(OC)c4Cl)c(C)n3)CC1)C2 [Compound 158]	3 nM	32 nM	31 nM		
NC(=O)NCC#Cc1ccc2c(c1)[C@@H](N)C1(CCN(c3cnc(Sc4ccnc(N)c4Cl)c(N)n3)CC1)C2 [Compound 159, (S)-1-(3-(1-amino-1′-(6-amino-5-((2-amino-3-chloropyridin-4-yl)thio)pyrazin-2-yl)-1,3-dihydrospiro[indene-2,4′-piperidin]-6-yl)prop-2-yn-1-yl)urea]	1 nM			6 nM	5 nM
COCC#Cc1cc(F)c2c(c1)[C@@H](N)C1(CCN(c3nc(C)n(-c4cccc(Cl)c4Cl)c(=O)c3C)CC1)C2 [Compound 160]	13 nM			41 nM	56 nM

Structure (SMILES)	IC50 [1]	IC50 (Miapaca2 3D spheroids)	IC50 ([2]; 2 hours)	IC50 (Miapaca2 3D spheroids; [3])	IC50 ([2]; Homo sapiens, MIA PaCa-2, 2 h)
COCC#Cc1ccc2c(c1)[C@@H](N)C1(CCN(c3cc(=O)n(-c4ccc(C#N)c(O)c4F)c(C)n3)CC1)C2 [Compound 186]	42 nM				> 1000 nM
C#Cc1ccc2c(c1)[C@@H](N)C1(CCN(c3cc(=O)n(-c4ccc(C#N)c(F)c4Cl)c(C)n3)CC1)C2 [Compound 198]	16 nM				191 nM
C#Cc1ccc2c(c1)[C@@H](N)C1(CCN(c3cc(=O)n(-c4ccc(OC)c(Cl)c4Cl)c(C)n3)CC1)C2 [Compound 211]	17 nM				161 nM
C#Cc1ccc2c(c1)[C@@H](N)C1(CCN(c3ncc(Sc4ccnc(N)n4)c(N)n3)CC1)C2 [Compound 213]	68 nM				447 nM
CC#Cc1ccc2c(c1)[C@@H](N)C1(CCN(c3cc(=O)n(-c4ccc(F)c(F)c4Cl)c(C)n3)CC1)C2 [Compound 214]	4 nM		100 nM		
CC#Cc1ccc2c(c1)[C@@H](N)C1(CCN(c3ncc(Sc4ccnc(N)c4Cl)c(N)n3)CC1)C2 [Compound 215]	25 nM				167 nM
CNC(=O)C#Cc1cc2c(cc1F)CC1(CCN(c3nc(N)c(Sc4ccnc(N)c4Cl)nc3Cl)CC1)[C@@H]2N [Compound 223]	4 nM				23 nM
CCNC(=O)C#Cc1ccc2c(c1)[C@@H](N)C1(CCN(c3nc(N)c(Sc4ccnc(N)c4Cl)nc3Cl)CC1)C2 [Compound 224]	9 nM				20 nM
C#Cc1cc2c(cc1F)CC1(CCN(c3cc(=O)n(-c4cccc(Cl)c4Cl)c(C)n3)CC1)[C@@H]2N [Compound 228]	203 nM				> 1000 nM
CC#Cc1ccc2c(c1)[C@@H](N)C1(CCN(c3cnc(Sc4ccnc(N)c4Cl)nn3)CC1)C2 [Compound 234]	2.8 nM				153 nM
CNC(=O)C#Cc1ccc2c(c1)[C@@H](N)C1(CCN(c3ncc(Sc4cccnc4C(F)(F)F)nn3)CC1)C2 [Compound 246]	133 nM				688 nM
CCNC(=O)C#Cc1ccc2c(c1)[C@@H](N)C1(CCN(c3ncc(N4CCCc5ncccc54)nc3C)CC1)C2 [Compound 258]	10 nM				188 nM
CNC(=O)C#Cc1ccc2c(c1)[C@@H](N)C1(CCN(c3ncc(N4CCCc5ncccc54)nc3C)CC1)C2 [Compound 263]	9 nM				204 nM
C#Cc1ccc2c(c1)[C@@H](N)C1(CCN(c3cc(=O)n(-c4cccc(C#N)c4Cl)c(C)n3)CC1)C2 [Compound 268]			63 nM	17 nM	
CCNC(=O)C#Cc1ccc2c(c1)[C@@H](N)C1(CCN(c3cnc(Sc4ccnc(N)c4Cl)c(C#N)n3)CC1)C2 [Compound 272]	17 nM				252 nM
C#Cc1ccc2c(c1)[C@@H](N)C1(CCN(c3ncc(-c4cn(C)c5ncccc45)c(=O)n3C)CC1)C2 [Compound 285]	85 nM				962 nM
C#Cc1ccc2c(c1)[C@@H](N)C1(CCN(c3ncc(N4CCCc5ncccc54)c(=O)n3C)CC1)C2 [Compound 287]	12 nM				140 nM
Nc1nccc(Sc2cnc(N3CCC4(CC3)Cc3ccc(C#CC(=O)N5CCC5)cc3[C@H]4N)cn2)c1Cl [Compound 303]	0.5 nM				9 nM
